US20240035973A1, “METHODS AND COMPOSITIONS OF STABLE THALLIUM FLUX ASSAYS FOR DETECTING MODULATORS OF ION CHANNELS” (ION Biosciences, priority 2022, published 2024)
pEC50: −log10 of the molar value. Like-named read-outs stand apart in the source and are kept apart here.

Experiments:
[1] = target: T1, GIRK (Homo sapiens, UniProt P48051+P48549); assay: traditional thallium flux assay (influx), dose response; format: cell-based; conditions: traditional thallium flux method, CHO GIRK cells
T1 sequence (P48549 1-501): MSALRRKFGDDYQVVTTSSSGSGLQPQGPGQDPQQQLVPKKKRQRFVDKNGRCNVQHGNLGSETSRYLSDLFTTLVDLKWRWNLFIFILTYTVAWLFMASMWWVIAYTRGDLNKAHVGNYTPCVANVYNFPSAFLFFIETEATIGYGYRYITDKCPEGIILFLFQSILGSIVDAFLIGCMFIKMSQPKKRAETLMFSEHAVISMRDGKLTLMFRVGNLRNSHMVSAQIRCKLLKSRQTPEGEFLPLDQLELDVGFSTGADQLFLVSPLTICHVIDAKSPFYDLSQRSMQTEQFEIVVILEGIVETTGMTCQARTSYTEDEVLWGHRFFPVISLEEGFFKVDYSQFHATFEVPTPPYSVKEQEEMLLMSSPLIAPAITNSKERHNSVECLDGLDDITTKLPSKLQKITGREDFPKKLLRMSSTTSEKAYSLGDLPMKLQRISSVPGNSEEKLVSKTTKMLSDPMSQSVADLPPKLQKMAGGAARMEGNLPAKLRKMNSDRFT
T1 sequence (P48051 1-423): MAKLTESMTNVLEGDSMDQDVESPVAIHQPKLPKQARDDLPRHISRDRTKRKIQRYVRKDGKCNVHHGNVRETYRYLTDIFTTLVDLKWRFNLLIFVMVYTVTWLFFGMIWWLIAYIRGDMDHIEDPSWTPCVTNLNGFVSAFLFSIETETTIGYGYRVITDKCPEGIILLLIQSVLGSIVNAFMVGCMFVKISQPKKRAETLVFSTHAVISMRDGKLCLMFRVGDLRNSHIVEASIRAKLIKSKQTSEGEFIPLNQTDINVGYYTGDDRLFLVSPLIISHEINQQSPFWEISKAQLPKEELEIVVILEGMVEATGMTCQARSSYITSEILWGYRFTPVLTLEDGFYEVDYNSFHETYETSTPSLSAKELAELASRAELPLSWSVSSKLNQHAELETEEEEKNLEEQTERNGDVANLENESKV
Experimental: FIG. 5: (Left) Overlay of normalized dose response curves acquired using new method. Data was acquired using different analytical methods or instruments, and all three result in similar profiles and reported EC50 values.
In a comparative test of the efflux method disclosed herein, EC50 values were determined using VU551 as the effector. Three different instruments were used to monitor the change in fluorescence: 1- kinetic imaging plate reader (Hamamatsu FDSS), 2 - fluorescent microscope; 3- fluorescent plate reader. FIG. 5 depicts an overlay of normalized dose response curves acquired using the efflux method described herein. Regardless of the method of data collection, all three instruments provided similar profiles and reported similar EC50 values. In the right graph of FIG. 5, a dose response curve acquired using traditional thallium flux assay methods is shown. […] The use of a plate reader to determine the EC50 in the efflux method produced the closest result to the traditional method.

[2] = target: T2, GIRK1/2 (Homo sapiens, UniProt P48051+P48549); assay: thallium efflux assay by flow cytometry in CHO GIRK1/2 cells; format: cell-based
T2 construct: expressed in transfected cells; host or cells: CHO (Chinese hamster ovary) cells overexpressing GIRK1 and GIRK2
T2 sequence (P48549 1-501): T1 sequence (P48549 1-501)
T2 sequence (P48051 1-423): T1 sequence (P48051 1-423)
Experimental: CHO GIRK cells were treated with HEPES-Buffered Hanks Balanced Salt Solution (HHBSS, Control) or GIRK activator, VU0466551 (VU551). Data was acquired 50 minutes after addition of 1 μM VU551 using a BD Accuri C6 Flow Cytometer. […] FIG. 18 depicts an overlay of histograms of CHO GIRK1/2 cell fluorescence in treated and control cells.
FIG. 19 depicts the kinetic profile of CHO GIRK1/2 median cell fluorescence. Sample data was acquired before and at different time points after the addition of 3 μM GIRK activator, VU0466551 (VU551) or HHBSS (control). A slow increase in fluorescence is observed in the untreated group.

[3] = target: T1, GIRK; parameters: expressed in transfected cells; host or cells: CHO-K1 cells overexpressing GIRK channels; conditions: potassium indicator; plate reader or microscopy; read-out: EC50, literature reported value (calculated EC50s in line with it); cited from earlier work

For Cc1cc(NC(=O)Nc2ccc(F)c(F)c2)n(Cc2ccccc2)n1 [VU551], the pEC50 [1] was 7.11, the “Mean cell fluorescence of the treated group” value ([2]; 1 μM, 50 minutes after addition, BD Accuri C6 Flow Cytometer, control 4.5M RFUs) was 2.5 M and the “change in median cell fluorescence (kinetic profile)” value ([2]; 3 μM, before and at different time points after addition) was “rapid loss in fluorescence”. The pEC50 [3] was roughly 7.12.
